The record followed here is PMC12782889, “A GmNRF5a–GmCERK1–GmCAK1 module mediates chitin/chitosan‐triggered immune response in soybean” (Journal of Integrative Plant Biology, 2025).

In experiment [1] the test system is GmNFR5a^ECDF124R. As to the kind of experiment: MST binding to GmNFR5a^ECD mutant F124R. The arrangement: species or system soybean (Glycine max). Particulars: ligand dp6. The text has this:
The ectodomains of GmCERK1, GmNFR5a, and mutants were cloned into the yeast expression vector pPICZαA (Thermo Fisher Scientific, Shanghai, China) through the double digestion and ligation using the restriction endonuclease EcoRI/XbaI (NEB, Suzhou, China) and T4 ligase. Then, the linearized recombinant plasmid pPICZαA‐GmCERK1 and pPICZαA‐GmNFR5a were transformed into P. pastoris X‐33. The positive colonies were selected on YPDS medium (1% w/v yeast extract, 2% w/v peptone, 2% w/v glucose, 2% w/v agar, 100 μg/mL antibiotic Zeocin (Thermo Fisher Scientific)) plates and verified by direct DNA sequencing. Protein expression was carried out initially in BMGY media (100 mM potassium phosphate pH 6.0, 1.34% w/v YNB, 4 × 10^−5% w/v biotin, 1% v/v glycerol) at 28°C with shaking (180 rpm) until the OD600 reached 2.0–6.0. The cell pellet was transferred into BMMY medium (100 mM potassium phosphate pH 6.0, 1.34% w/v YNB, 4 × 10^−5% w/v biotin, 0.5% v/v methanol) and continuously supplied with the addition of 0.5% (v/v) methanol every day for 5 d. […]
GmCERK1^ECD, GmNFR5a^ECD, and all mutants were labeled with a fluorescent dye using the Monolith Protein Labeling Kit RED‐NHS second Generation (MO‐L011). […] The data were analyzed and fitted by plotting ligand concentrations against bound fractions using the MO.Affinity Analysis v3.0.5 software. […]

For experiment [2], the system named is Phytophthora sojae P6497. As to the kind of experiment: P. sojae infection of pretreated soybean hairy roots (GFP control). The class given is in vivo, Phytophthora sojae on soybean (Glycine max). The conditions noted are these: control hairy roots expressing GFP; 50 mg/L soak 12 h; 48 hpi; vs dH2O; P < 0.0001. An excerpt:
Soybean (cultivar Williams) seeds were surface sterilized and germinated as previously described ([Kereszt et al., 2007]). Soybean cotyledons were removed from […] seedlings grown in vermiculite. Cotyledons were harvested at Day 7 by gently twisting them off the hypocotyl. Only unblemished cotyledons were employed for all protocols. Individual cotyledons were surface sterilized by wiping with an alcohol swab soaked in 70% ethanol. The alcohol swab was wrung out slightly before use, so that it was wet but not dripping. […] Hairy roots were monitored for green fluorescence production over a period of 4 weeks. For silencing in hairy roots, the transcript levels of the targeted gene and its closest paralogs were measured in fluorescent green hairy roots using qRT‐PCR to assess silencing efficiency.
For soybean etiolated hypocotyls inoculation assays, etiolated hypocotyls of soybean (cultivar Williams) were inoculated with P. sojae zoospore suspensions (100 zoospores). […] For soybean hairy‐root inoculation assays, transgenic hairy roots were soaked in CTOS/CSOS (50 mg/L) or mock (dH2O) for 12 h and then were infected with red fluorescent protein (RFP)‐labeled P. sojae strain P6497, and fluorescence was visualized in the infected area of soybean hairy root and the biomass of P. sojae was determined by qRT‐PCR at 48 hpi.

As for `N[C@H]1[C@H](O[C@H]2[C@H](O)[C@@H](N)[C@H](O[C@H]3[C@H](O)[C@@H](N)[C@H](O[C@H]4[C@H](O)[C@@H](N)[C@H](O[C@H]5[C@H](O)[C@@H](N)[C@H](O[C@H]6[C@H](O)[C@@H](N)C(O)O[C@@H]6CO)O[C@@H]5CO)O[C@@H]4CO)O[C@@H]3CO)O[C@@H]2CO)O[C@H](CO)[C@@H](O)[C@@H]1O` (some centres unmarked) [CSOS (dp6), chitosan oligosaccharide], the “interaction with GmNFR5a^ECDF124R” value in experiment [1] is recorded as “cannot interact”.

As to `CC(=O)N[C@H]1[C@H](O[C@H]2[C@H](O)[C@@H](NC(C)=O)[C@H](O[C@H]3[C@H](O)[C@@H](NC(C)=O)C(O)O[C@@H]3CO)O[C@@H]2CO)O[C@H](CO)[C@@H](O[C@@H]2O[C@H](CO)[C@@H](O[C@@H]3O[C@H](CO)[C@@H](O[C@@H]4O[C@H](CO)[C@@H](O)[C@H](O)[C@H]4NC(C)=O)[C@H](O)[C@H]3NC(C)=O)[C@H](O)[C@H]2NC(C)=O)[C@@H]1O` (some centres unmarked) [CTOS (dp6), chitin oligosaccharide], in experiment [2], the “soybean defense against P. sojae (pathogen biomass)” value was “significantly bolstered”.
